Read-outs that look alike come from different tables or passages of the source.
Assays:
Format in all cases: cell-based
M2 muscarinic receptor = target: T1, M2 muscarinic receptor (Homo sapiens, UniProt P08172); test: accumulation of IPX, M2 CHO cells (M2Gq); design: host or cells: CHO cells, stably transfected; conditions: for E′MAX / τ / RAi / Δlog(τ/KA): M2Gq (↑IPX); for E′MAX / τ: Table 8; for RAi: Table 8, relative to carbachol; for Δlog(τ/KA): Table 8, to carbachol
T1 sequence (P08172 1-466): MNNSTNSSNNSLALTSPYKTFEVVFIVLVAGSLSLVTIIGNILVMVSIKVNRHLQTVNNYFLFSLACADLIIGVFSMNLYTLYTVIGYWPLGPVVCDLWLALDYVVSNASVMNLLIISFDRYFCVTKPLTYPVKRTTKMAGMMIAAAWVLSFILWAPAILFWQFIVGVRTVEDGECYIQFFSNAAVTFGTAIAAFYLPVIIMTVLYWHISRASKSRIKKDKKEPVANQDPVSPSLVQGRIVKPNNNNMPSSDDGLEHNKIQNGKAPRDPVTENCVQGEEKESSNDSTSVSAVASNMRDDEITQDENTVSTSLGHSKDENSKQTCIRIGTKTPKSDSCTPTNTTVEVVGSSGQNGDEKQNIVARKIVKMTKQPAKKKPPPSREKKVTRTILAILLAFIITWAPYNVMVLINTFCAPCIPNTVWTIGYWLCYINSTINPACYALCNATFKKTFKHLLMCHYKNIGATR
Method: (§1) To determine level of cAMP, cells in suspension were pre-incubated for 1 h with 0.4 μM [^3H]adenine, washed, and incubated for 10 min in the presence of isobutylmethylxanthine and 10 μM forskolin. […] Incubation was ended by addition of 0.2 ml of 2.5 M HCl to the samples. Samples were applied to alumina columns (1.5 g of alumina per column), washed with 2 ml ammonium acetate (pH=7.0) and eluted from columns with 4 ml ammonium acetate and measured by liquid scintillation spectrometry. […] The incubation was stopped by addition of 0.5 ml of chloroform methanol HCl mixture (2:1:0.1). After separation of water and organic phases, 0.6 ml of water phase was applied to Dowex columns (1.5 g of Dowex per column), washed by 20 ml of 60 mM ammonium formate/5 mM sodium borate buffer and eluted from columns with 4 ml of 1M ammonium formate/0.1 formic acid buffer and measured by liquid scintillation spectrometry.
(§2) Measurements of the production of cAMP and inositol phosphates: Levels of second messengers cAMP and inositol phosphates were determined in radiochemical chromatography assays as described previously. To determine level of cAMP, cells in suspension were pre-incubated for 1 h with 0.4 μM [^3H]adenine, washed, and incubated for 10 min in the presence of isobutylmethylxanthine and 10 μM forskolin. […] Incubation was ended by addition of 0.2 ml of 2.5 M HCl to the samples. Samples were applied to alumina columns (1.5 g of alumina per column), washed with 2 ml ammonium acetate (pH=7.0) and eluted from columns with 4 ml ammonium acetate and measured by liquid scintillation spectrometry. […] For this purpose, new CHO cell lines stably expressing promiscuous G15 G-protein and M2 or M4 receptor were generated by transfection with pCMV/hygro vector and hygromycin selection. To determine the rate of formation of inositol phosphates IPX, suspended cells were pre-incubated with 0.1 μM [^3H]myo-inositol for 60 min, washed, and incubated with 10 mM LiCl for 15 min. […] The incubation was stopped by addition of 0.5 ml of chloroform methanol HCl mixture (2:1:0.1). After separation of water and organic phases, 0.6 ml of water phase was applied to Dowex columns (1.5 g of Dowex per column), washed by 20 ml of 60 mM ammonium formate/5 mM sodium borate buffer and eluted from columns with 4 ml of 1M ammonium formate/0.1 formic acid buffer and measured by liquid scintillation spectrometry.
(§3) For bi-phasic response, curves were inhibitory and stimulatory phase were fitted separately. Operational Model of Functional Agonism
(§4) [formula] where y is functional response at concentration of tested compound x, EMAX is maximal response of the system, KA is equilibrium dissociation constant and nH is slope factor. Eq. 5 was fitted to data from functional experiments. Eq. 5 was fitted to data by the two-step procedure described earlier. […] In the second step, Eq. 5 with EMAX fixed to the value determined in the first step was fitted to individual experimental data sets. Relative Intrinsic Activity

M3 muscarinic receptor = M3 muscarinic receptor (Homo sapiens, UniProt P20309); test: accumulation of IPX, M3 CHO cells transfected with G15 (M3Gq+G15); design: host or cells: CHO cells
Chain of M3 muscarinic receptor (P20309 whole entry): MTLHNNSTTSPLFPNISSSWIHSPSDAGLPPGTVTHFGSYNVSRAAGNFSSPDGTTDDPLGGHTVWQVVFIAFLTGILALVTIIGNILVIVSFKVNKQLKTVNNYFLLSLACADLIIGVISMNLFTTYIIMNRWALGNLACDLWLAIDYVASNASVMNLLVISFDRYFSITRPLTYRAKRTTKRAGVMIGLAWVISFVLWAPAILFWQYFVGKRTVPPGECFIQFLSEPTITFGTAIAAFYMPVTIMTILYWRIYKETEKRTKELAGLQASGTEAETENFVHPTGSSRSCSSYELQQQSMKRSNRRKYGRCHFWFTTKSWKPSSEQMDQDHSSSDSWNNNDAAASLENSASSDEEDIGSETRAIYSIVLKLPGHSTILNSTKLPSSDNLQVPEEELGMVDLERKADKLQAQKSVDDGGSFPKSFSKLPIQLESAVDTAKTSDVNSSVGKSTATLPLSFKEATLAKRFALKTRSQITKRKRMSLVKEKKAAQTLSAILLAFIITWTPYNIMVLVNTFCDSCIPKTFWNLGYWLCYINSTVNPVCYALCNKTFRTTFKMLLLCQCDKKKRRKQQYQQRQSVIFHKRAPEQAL
Method: as §1, §2, §3, §4

M1 muscarinic receptor = target: T2, M1 muscarinic receptor (Homo sapiens, UniProt P11229); test: accumulation of IPX, M1 CHO cells transfected with G15 (M1Gq+G15); design: host or cells: CHO cells
T2 sequence (P11229 1-460): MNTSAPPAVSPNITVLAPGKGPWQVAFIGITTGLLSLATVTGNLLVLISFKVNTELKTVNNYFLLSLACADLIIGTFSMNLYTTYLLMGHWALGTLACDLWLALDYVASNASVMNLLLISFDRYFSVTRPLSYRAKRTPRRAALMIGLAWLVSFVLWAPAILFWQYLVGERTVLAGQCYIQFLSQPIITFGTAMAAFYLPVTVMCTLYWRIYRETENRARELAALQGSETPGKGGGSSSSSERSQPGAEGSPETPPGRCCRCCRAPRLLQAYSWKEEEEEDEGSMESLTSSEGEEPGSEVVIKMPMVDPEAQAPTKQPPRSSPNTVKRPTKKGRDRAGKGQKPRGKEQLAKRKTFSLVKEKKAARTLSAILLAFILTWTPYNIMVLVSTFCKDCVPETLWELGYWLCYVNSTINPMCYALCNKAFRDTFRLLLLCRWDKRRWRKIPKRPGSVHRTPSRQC
Method: as §1, §2, §3, §4

[1] = M3Gq + G15 (↑IPX), Table 8, relative to carbachol
[2] = M3Gq + G15 (↑IPX), Table 8, to carbachol
[3] = M3Gq + G15 (↑IPX), Table 8, read-out: pEC50 (converted)
[4] = M3Gq + G15 (↑IPX), Table 8, read-out: pKA (converted)
[5] = M1Gq + G15 (↑IPX), Table 8, relative to carbachol
[6] = M1Gq + G15 (↑IPX), Table 8, to carbachol
[7] = M1Gq + G15 (↑IPX), Table 8, read-out: pEC50 (converted)
[8] = M1Gq + G15 (↑IPX), Table 8, read-out: pKA (converted)

| SMILES | E′MAX (M2 muscarinic receptor) | τ (M2 muscarinic receptor) | RAi (M2 muscarinic receptor) | Δlog(τ/KA) (M2 muscarinic receptor) | E′MAX (M3 muscarinic receptor; M3Gq + G15 (↑IPX), Table 8) | τ (M3 muscarinic receptor; M3Gq + G15 (↑IPX), Table 8) | RAi (M3 muscarinic receptor; [1]) | Δlog(τ/KA) (M3 muscarinic receptor; [2]) | EC50 (M3 muscarinic receptor; [3]) | Kd (M3 muscarinic receptor; [4]) | E′MAX (M1 muscarinic receptor; M1Gq + G15 (↑IPX), Table 8) | τ (M1 muscarinic receptor; M1Gq + G15 (↑IPX), Table 8) | RAi (M1 muscarinic receptor; [5]) | Δlog(τ/KA) (M1 muscarinic receptor; [6]) | EC50 (M1 muscarinic receptor; [7]) | Kd (M1 muscarinic receptor; [8]) | further results |
| --- | --- | --- | --- | --- | --- | --- | --- | --- | --- | --- | --- | --- | --- | --- | --- | --- | --- |
| O=C1CCCN1CC#CCN1CCCC1 [oxotremorine, reference compound] | 1.60 ± 0.05 fold over basal | 0.2 ± 0.1 | 3.08 ± 0.28 | −0.49 ± 0.05 | – | – | – | – | – | – | – | – | – | – | – | – | EC50 (M2 muscarinic receptor): 0.209 µM; Kd (M2 muscarinic receptor): 0.251 µM; EC50 (M3 muscarinic receptor): 0.1 µM; E′MAX (M3 muscarinic receptor): 22 ± 2 fold over basal; Kd (M3 muscarinic receptor): 0.398 µM; RAi (M3 muscarinic receptor): 4.14 ± 0.38; Δlog(τ/KA) (M3 muscarinic receptor): −0.62 ± 0.06; τ (M3 muscarinic receptor): 2.9 ± 0.3; EC50 (M1 muscarinic receptor): 0.0525 µM; E′MAX (M1 muscarinic receptor): 25 ± 2 fold increase; Kd (M1 muscarinic receptor): 0.2 µM; RAi (M1 muscarinic receptor): 3.71 ± 0.29; Δlog(τ/KA) (M1 muscarinic receptor): −0.57 ± 0.06; τ (M1 muscarinic receptor): 2.6 ± 0.3 |
| C[N+](C)(C)CCOC(N)=O [carbachol, reference compound] | 1.91 ± 0.07 fold over basal | 0.2 ± 0.1 | – | 0 | – | – | – | – | – | – | – | – | – | – | – | – | – |
| C1=CCN(Cc2cccs2)CC1.Cl [Compound 6A, 1-[(thiophen-2-yl)methyl]-1,2,3,6-tetrahydropyridin-1-ium chloride] | – | – | 0 | – | 2.5 ± 0.2 fold over basal | 0.06 ± 0.01 | 0.0058 ± 0.0005 | 2.23 ± 0.23 | 5.01 µM | 5.01 µM | 2.0 ± 0.2 fold increase | 0.03 ± 0.01 | 0.0010 ± 0.0001 | 2.98 ± 0.26 | 7.94 µM | 7.94 µM | – |
| C[N+]1(Cc2cccs2)CC=CCC1.[I-] (centres unmarked) [Compound 7A, 1-methyl-1-[(thiophen-2-yl)methyl]-1,2,3,6-tetrahydropyridin-1-ium iodide] | – | – | 0 | – | 3.0 ± 0.3 fold over basal | 0.08 ± 0.01 | 0.011 ± 0.001 | 1.94 ± 0.20 | 3.16 µM | 3.16 µM | 4.6 ± 0.4 fold increase | 0.12 ± 0.01 | 0.0111 ± 0.0002 | 1.96 ± 0.16 | 2.63 µM | 3.16 µM | – |

Reference: patent US11591323B2, “Muscarinic agonists as non-steroidal and non-opioid analgesics and methods of use thereof” (Barry University, priority 2019, dated 2023)
